Results on one compound are retold here after patent US10274488B2, “Glycan arrays on PTFE-like aluminum coated glass slides and related methods” (Academia Sinica, priority 2008, dated 2019).

What all share (format): biochemical, Clostridium thermocellum
Test [1] concerns endoglucanase 44A. Briefly: Enzymatic hydrolysis on the PTFE-like ACG surface with endoglucanase 44A, MS-TOF assay. The conditions noted are these: substrate immobilized on the PTFE-like ACG surface. The method, then: (§1) For each carbohydrate, a specific enzyme was added: (a) is the control run without enzymes, (b) is exoglucanase L3, and (c) is endoglucanase 44A. […]
(§2) For comparison and as illustrated according to implementations shown in FIG. 23, substrate 8, 9, and 10 were immobilized on the PTFE-like ACG surface and carried out the cellulase hydrolysis on the surface directly, after the same washing procedures, these slides were subjected to MS-TOF assay. […] The endoglucanase 44A can't accept compound 8 or 9 as a substrate. […] From the above results, the cellotetraose substrate 10 was the best carbohydrate to create array on the PTFE-like ACG surface for the experiments conducted. By using this array, the activity and specificity of unknown cellulase may be examined.
(§3) Cellulase was prepared (5 U/mL in 25 mM pH 5.05 NaOAc buffer solution). Substrate was also dissolved in NaOAc buffer solution (25 mM, pH 5.05) to give 0.5 mM substrate solution. Add 50 μL cellulase solution to 50 μL substrate solution onto the glass slide which was loaded in FAST® Frame multi-slide plate to have a 2.5 U/mL cellulase solution with 0.25 mM substrate. The well of the plate was sealed and the whole assembly was incubated in 37° C. for 18 hours. Put the slide in dry box to remove the water, and then use high vacuum to remove trace water. 100 uL water was used to rinse each well of the FAST® Frame multi-slide plate to solve and remove the salt of the buffer solution. Remove any residual water on the plate by high vacuum and then analyzed the slide by MALDI-TOF Ultra-Flex II.
(§4) The genomic DNA of Sulfolobus solfataricus (ATCC 35092) and Clostridium thermocellum (ATCC 27405) were obtained from the ATCC biological resource center. The Sso7d (NCBI accession number: AAK42090) gene fragment was amplified directly from the Sulfolobus solfataricus genome by polymerase chain reaction (PCR) with forward 5′ […] 3′ (SEQ ID NO: 1) and reverse 5′ […] 3′ (SEQ ID NO: 2) primers. […]

In test [2] the test system is exoglucanase L3. Briefly: Enzymatic hydrolysis in solution with purified exoglucanase L3, MS-TOF assay. The conditions noted are these: reaction in solution. The procedure: (§5) To verify, the exoglucanases (L3) and endoglucanase (44A) were prepared according methods well known in the literature with minor modifications. First, enzymatic hydrolysis reactions were conducted in solution with the purified enzymes using substrates 8, 9 and 10. At the completion of the reaction, the solution mixtures were transferred to the PTFE-like ACG slide, and prepared by using the same washing procedures before being subjected to MS-TOF assay.
as §1
(§6) Cellulase was prepared (5 U/mL in 25 mM pH 5.05 NaOAc buffer solution). Substrate was also dissolved in NaOAc buffer solution (25 mM, pH 5.05) to give 0.5 mM substrate solution. Add 100 uL cellulase solution to 100 uL substrate solution in eppendorf to have a 2.5 U/mL cellulase solution with 0.25 mM substrate. This solution was incubated in 37° C. for 18 hours. Add 100 μL incubated solution onto the slide loaded in FAST® Frame. Put the slide in dry box to remove the water, and then use high vacuum to remove trace water. 100 μL water was used to rinse each well of the FAST® Frame multi-slide plate to solve and remove the salt of the buffer solution. Remove any residual water on the plate by high vacuum and then analyzed the slide by MALDI-TOF Ultra-Flex II.
(§7) The genomic DNA of Sulfolobus solfataricus (ATCC 35092) and Clostridium thermocellum (ATCC 27405) were obtained from the ATCC biological resource center. The Sso7d (NCBI accession number: AAK42090) gene fragment was amplified directly from the Sulfolobus solfataricus genome by polymerase chain reaction (PCR) with forward 5′ […] 3′ (SEQ ID NO: 1) and reverse 5′ […] 3′ (SEQ ID NO: 2) primers. The PCR product encoding Sso7d was digested with NdeI and BamHI and subsequently cloned into expression vector pET-28a (Novagen) to generate pET-28-Sso7d. […]

Test [3] relates to endoglucanase 44A. Briefly: Enzymatic hydrolysis in solution with purified endoglucanase 44A, MS-TOF assay. The conditions noted are these: reaction in solution. The procedure: as §5, §1, §6, §7
In test [4] the test system is exoglucanase L3. Briefly: Enzymatic hydrolysis on the PTFE-like ACG surface with exoglucanase L3, MS-TOF assay. The conditions noted are these: substrate immobilized on the PTFE-like ACG surface, 24 hours of incubation. The procedure:
as §1, §2
as §3, with “The well of the plate was sealed and the whole assembly was incubated in 37° C. for 18 hours.” left out
as §4

On to `O=C(NCCCCCO[C@@H]1O[C@H](CO)[C@@H](O[C@@H]2O[C@H](CO)[C@@H](O[C@@H]3O[C@H](CO)[C@@H](O[C@@H]4O[C@H](CO)[C@@H](O)[C@H](O)[C@H]4O)[C@H](O)[C@H]3O)[C@H](O)[C@H]2O)[C@H](O)[C@H]1O)OCCCC(F)(F)C(F)(F)C(F)(F)C(F)(F)C(F)(F)C(F)(F)C(F)(F)C(F)(F)C(F)(F)F` [Compound 10, [(4,4,5,5,6,6,7,7,8,8,9,9,10,10,11,11,12,12,12-nonadecafluorododecoxycarbonyl-amino)pentyl] ß-D-glucopyranosyl-(1→4)-ß-D-glucopyranosyl-(1→4)- -ß-D-glucopyranosyl-(1→4)-13-D-glucopyranoside], for which the “Cleavage of the substrate by endoglucanase 44A (in words)” value in test [1] is on record as “cleaved cellotetraose quickly”; in test [3], “cleaves the trisaccharide or tetrasaccharide unit”. In addition, the “Cleavage of the substrate by exoglucanase L3 (in words)” value in test [2] is given as “quickly”; in test [4], “cleaved the cellobiose quickly”.
